Assay results from patent US20050095239A1, “Methods and compositions for treating Alzheimer's disease” (priority 2002, published 2005).

Key:
[1] = test system: ABCA1 protein expression in Neuro2A cells; assay: ABCA1 immunoblot of Neuro2A cells treated with retinoic acid and oxysterols; assay type: cell-based, mouse; conditions: for ABCA1 induction, densitometric analysis / increase of ABCA1 protein (immunoblot) compared with 22-hydroxycholesterol: 5 μM oxysterol with 5 μM retinoic acid; for increase of ABCA1 protein (immunoblot) compared with 22-hydroxycholesterol: one or two days
Description: (§1) Cell culture. Mouse Neuro2A (neuroblastoma) cells and human IMR-32 (neuroblastoma) cells (American Type Culture Collection, Manassas, Va.) were cultured in Optimem (Gibco, Invitrogen Life Technologies, Carlsbad, Calif.) supplemented with 10% fetal bovine serum. Mouse BV-2 (microglial) and rat C6 (glioma) cells were cultured in Dulbecco's modified Eagle's medium supplemented with 5% fetal bovine serum. Mouse primary neuronal cultures were generated as described (27). Briefly, cortical neurons were isolated from embryonic day 16 Swiss-Webster mice. Individual cortices was dissociated in calcium-free saline and plated on poly-D-lysine (Sigma) coated tissue culture dishes at the density of 1.5×10^6 cell/ml. The neurons were grown in Neurobasal Media (Gibco BRL) plus 10% fetal bovine serum. One hour after plating, medium with serum was replaced with medium containing B-27 supplement (Gibco BRL). Western blot. Cells were lysed in 250 mM sucrose, 10 mM HEPES (pH 7.4), supplemented with complete protease inhibitors (Sigma Chemical Co). Protein levels were quantified by the BCA assay (Pierce, Rockford, Ill.), and samples of 50 μg were held in SDS loading buffer with 2.5% β-mercaptoethanol for 30 min at room temperature, but were not boiled prior to loading. Proteins were separated by SDS-6% polyacrylamide gel electrophoresis and transferred to nitrocellulose. Blots were probed with the anti-ABC1 antibodies (1:1000), and developed with anti-rabbit linked HRP secondary antibody by chemiluminescence.

[2] = test system: ABCA1 protein expression in BV-2 cells; assay: ABCA1 immunoblot of BV-2 microglial cells; assay type: cell-based, mouse
Description: as §1

[3] = test system: ABCA1 protein expression in C6 cells; assay: ABCA1 immunoblot of C6 glioma cells; assay type: cell-based, rat
Description: as §1

[4] = test system: secreted Aβ42 from Neuro2A cells; assay: Aβ42 ELISA of conditioned medium of Neuro2A cells; assay type: cell-based, mouse; conditions: for increase of secreted Aβ42 over vehicle-treated cells: with retinoic acid, one day, 22-hydroxycholesterol 10 uM
Description: (§2) Cell culture. Mouse Neuro2A (neuroblastoma) cells and human IMR-32 (neuroblastoma) cells (American Type Culture Collection, Manassas, Va.) were cultured in Optimem (Gibco, Invitrogen Life Technologies, Carlsbad, Calif.) supplemented with 10% fetal bovine serum. Mouse BV-2 (microglial) and rat C6 (glioma) cells were cultured in Dulbecco's modified Eagle's medium supplemented with 5% fetal bovine serum. Mouse primary neuronal cultures were generated as described (27). Briefly, cortical neurons were isolated from embryonic day 16 Swiss-Webster mice. Individual cortices was dissociated in calcium-free saline and plated on poly-D-lysine (Sigma) coated tissue culture dishes at the density of 1.5×10^6 cell/ml. The neurons were grown in Neurobasal Media (Gibco BRL) plus 10% fetal bovine serum. One hour after plating, medium with serum was replaced with medium containing B-27 supplement (Gibco BRL).
(§3) RNA inhibition. Double stranded RNA (RNAi) was generated homologous to a region of the 5′ end of the coding portion of the mouse ABCA1 gene, 5′-AAGTGGCCTGGCCTCTCTTTA-3′ (SEQ ID NO:2) (Dharmacon Research Inc, Lafayette, Colo.). As a negative control, we used a sequence directed against the human hsp70 gene. Neuro2A cells were transfected with the RNAi with Effectene transfection reagent (Qiagen, Valencia, Calif.) according to manufacturer protocol. After an overnight exposure, RNAi complex was removed, cells were washed one time in growth medium, and the media was replaced with Neurobasal medium with 2% B-27 with or without LXR/RXR agonists for one day. Conditioned media was collected and analyzed for Aβ.
(§4) Aβanalyses. Cells were cultured in Neurobasal medium with 2% B-27 for one day in the presence or absence of LXR/RXR agonists. Aβ40 and Aβ42 levels in the conditioned medium were determined by ELISA, with BNT77 as a capture antibody and BA23-HRP for Aβ40 or BC05-HRP for Aβ42 as detection antibodies (28). Aβ antibodies for ELISA were the generous gift of Takeda Chemical Industries.

[5] = test system: secreted Aβ40 from Neuro2A cells; assay: Aβ40 ELISA of conditioned medium of Neuro2A cells; assay type: cell-based, mouse; conditions: for increase of secreted Aβ40 over vehicle-treated cells: with retinoic acid, one day, 22-hydroxycholesterol 10 uM
Description: as §2, §3, §4

[6] = test system: ABCA1 protein expression in mouse primary neurons; assay: ABCA1 immunoblot of mouse primary neurons treated with retinoic acid and 22-hydroxycholesterol; assay type: cell-based
Description: as §1, with “Blots were probed with the anti-ABC1 antibodies (1:1000), and developed with anti-rabbit linked HRP secondary antibody by chemiluminescence.” left out

[7] = test system: ABCA1 protein expression in human neuroblastoma IMR-32 cells; assay: ABCA1 immunoblot of IMR-32 cells; assay type: cell-based; conditions: with retinoic acid
Description: as §1, with “Blots were probed with the anti-ABC1 antibodies (1:1000), and developed with anti-rabbit linked HRP secondary antibody by chemiluminescence.” left out

LXRα or LXRβ isoforms = conditions: references 37, 38; cited from earlier work
[8] = 5 μM retinoic acid and 5 μM 22-hydroxycholesterol together
[9] = cells treated only with buffer or with the RNAi named
[10] = retinoic acid and 22-hydroxycholesterol vs vehicle (ethanol), absence of RNAi
[11] = 1 μM TO-901317 in the presence of 5 μM retinoic acid

## CC(C)CCC[C@@H](C)[C@H]1CC[C@H]2[C@@H]3C(=O)C=C4C[C@@H](O)CC[C@]4(C)[C@H]3CC[C@]12C [7-ketocholesterol]
[1]
  ABCA1 induction, densitometric analysis: only half that level
  increase of ABCA1 protein (immunoblot) compared with 22-hydroxycholesterol: not as efficacious

## CC(C)CC[C@@H](O)[C@@H](C)[C@H]1CC[C@H]2[C@@H]3CC=C4C[C@@H](O)CC[C@]4(C)[C@H]3CC[C@]12C [22-hydroxycholesterol, 22(R)-hydroxycholesterol]
[2]; [8]
  ABCA1 expression: increased
[3]; [8]
  ABCA1 expression: increased
[4]; [9]
  secreted Aβ42 after 22-hydroxycholesterol/retinoic acid treatment, in words: significantly increased
[4]; [10]
  increase of Aβ42, control cells of the RNAi experiment: 62%
[4]
  increase of secreted Aβ42 over vehicle-treated cells: 65%
[5]; [9]
  secreted Aβ40 after 22-hydroxycholesterol/retinoic acid treatment, in words: significantly increased
[5]; [10]
  increase of Aβ40, control cells of the RNAi experiment: 29%
[5]
  increase of secreted Aβ40 over vehicle-treated cells: 29%
[1]
  ABCA1 induction, densitometric analysis: equivalent extent
[1]; 10 μM retinoic acid and 22-hydroxycholesterol together, untreated cells low or undetectable
  expression of ABCA1: clearly apparent
[1]; compound alone, some experiments
  up-regulation of ABCA1 in cells treated only with the one compound: weak up-regulation
[6]; 22-hydroxycholesterol together with retinoic acid, from 100 nM to 10 uM
  ABCA1 expression with increasing concentration: further increased ABCA1 expression
[6]; one-day treatment, 100 nM 22-hydroxycholesterol together with 100 nM retinoic acid
  ABCA1 protein compared to untreated cells: up-regulation of ABCA1 protein
[7]
  ABCA1 levels: detectable ABCA1 levels only after induction

## CC(C)[C@@H](O)CC[C@@H](C)[C@H]1CC[C@H]2[C@@H]3CC=C4C[C@@H](O)CC[C@]4(C)[C@H]3CC[C@]12C [24S-hydroxycholesterol]
LXRα or LXRβ isoforms
  ABCA1 expression through interactions with LXRα or LXRβ: induces ABCA1 expression

## C[C@H](CCCC(C)(C)O)[C@H]1CC[C@H]2[C@@H]3CC=C4C[C@@H](O)CC[C@]4(C)[C@H]3CC[C@]12C [25-hydroxycholesterol]
[1]
  ABCA1 induction, densitometric analysis: equivalent extent
  increase of ABCA1 protein (immunoblot) compared with 22-hydroxycholesterol: nearly as well as 22-hydroxycholesterol

## O=S(=O)(c1ccccc1)N(CC(F)(F)F)c1ccc(C(O)(C(F)(F)F)C(F)(F)F)cc1 [TO-901317]
[2]; 1 μM TO-901317 alone
  ABCA1 expression: increased
[2]; [11]
  ABCA1 expression: further increased
[3]; 1 μM TO-901317 alone
  ABCA1 expression: increased
[3]; [11]
  ABCA1 expression: further increased
[4]
  increase of secreted Aβ42 over vehicle-treated cells: 126%
[5]
  increase of secreted Aβ40 over vehicle-treated cells: 25%
